Test results from PMC8877822, “Interrogation of the Structure–Activity Relationship of a Lipophilic Nitroaromatic Prodrug Series Designed for Cancer Gene Therapy Applications” (Pharmaceuticals, 2022).

Key:
[1] = system: H1299 cells expressing E. coli NfsA; test: Anti-proliferative IC50 assay, H1299 cells expressing E. coli NfsA; format: cell-based; details: for IC50: Escherichia coli, NCI-H1299, H1299 NfsA_Ec, 4 hour drug exposure, regrowth for five days; for WT:NfsA_Ec IC50 ratio: H1299 WT vs H1299 NfsA_Ec
Description: (§1) The anti-proliferative IC50 was determined as the concentration of prodrug required for 50% inhibition of cell growth, following drug exposure for four hours, then five days regrowth in the absence of drug. Assays were performed under oxic or anoxic conditions as described previously, the latter by using a 5% H2/palladium catalyst scrubbed Bactron anaerobic chamber (Sheldon Manufacturing, Cornelius, OR, USA) to achieve severe anoxia (<10 ppm O2 gas phase) during prodrug exposure.
(§2) Supplementary Table S2. In vitro anti-proliferative activity of the three lead prodrug compounds in H1299 cells expressing E. coli NfsA. IC50 values were determined as the concentration of drug required to inhibit cell growth by 50% of untreated controls following 4 hour drug exposure, with washing and regrowth for five days.
(§3) Compound WT NfsA_Ec Ratio

[2] = system: H1299 WT cells; test: Anti-proliferative IC50 assay, H1299 WT cells; format: cell-based; details: Homo sapiens, NCI-H1299, 4 hour drug exposure, regrowth for five days
Description: as §1, §2, §3

[3] = design: method as in PMID 34959631; details: mice, PR-104 at 388 µmol/kg (human equivalent dose); cited from earlier work
[4] = target: T1, purified His6-tagged NfsA_Ec (Escherichia coli, UniProt P17117); design: method as in earlier work; details: apparent, 250 µM NADPH; cited from earlier work
T1 construct: His6; made in house
T1 sequence (P17117 1-240): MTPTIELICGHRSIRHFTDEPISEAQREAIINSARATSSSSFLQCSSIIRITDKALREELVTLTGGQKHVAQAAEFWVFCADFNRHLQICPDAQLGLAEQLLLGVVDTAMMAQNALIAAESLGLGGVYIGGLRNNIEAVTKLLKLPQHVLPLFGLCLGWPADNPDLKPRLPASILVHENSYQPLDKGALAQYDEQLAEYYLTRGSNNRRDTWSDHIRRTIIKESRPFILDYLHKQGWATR

[5] = system: HCT116 cells expressing E. coli NfsA nitroreductase (NfsA_Ec); test: Low cell density anti-proliferative (IC50) assay, HCT116 NfsA_Ec vs HCT116 WT; format: cell-based; details: aerobic, five days regrowth; for IC50: Escherichia coli, HCT-116, four hour drug exposure
Description: (§4) Next, we evaluated the compounds for activity with the major nitroreductase from E. coli, NfsA (NfsA_Ec), or the human aldo-keto reductase AKR1C3, using a low cell density anti-proliferative (IC50) assay (Figure 2). The sensitivity of HCT116 wild-type (WT) cells and HCT116 cells over-expressing either NfsA_Ec or AKR1C3 was examined under aerobic conditions.
as §1
Figure 2 In vitro anti-proliferative activity of the novel lipophilic analogue series in HCT116 cells expressing AKR1C3 and E. coli NfsA (NfsA_Ec). IC50 values were determined as the concentration of drug required to inhibit cell growth by 50% of untreated controls following four hour drug exposure, with washing and regrowth for five days. Respective IC50 ratios (WT:AKR1C3 or WT:NfsA_Ec) are indicated above the bars for each compound. TEXT PRINTED IN THE PICTURE: PR-104A: HCT116 AKR1C3: 84; HCT116 NfsA_Ec: 2680 | 1: HCT116 AKR1C3: 1.8; HCT116 NfsA_Ec: 242 | 2: HCT116 AKR1C3: 1.6; HCT116 NfsA_Ec: 1431 | 3: HCT116 AKR1C3: 2.3; HCT116 NfsA_Ec: 913 | 4: HCT116 AKR1C3: 3.3; HCT116 NfsA_Ec: 594 | 5: HCT116 AKR1C3: 3.3; HCT116 NfsA_Ec: 152 | 6: HCT116 AKR1C3: 2.4; HCT116 NfsA_Ec: 741 | 7: HCT116 AKR1C3: 3.2; HCT116 NfsA_Ec: 174 | 8: HCT116 AKR1C3: 4.9; HCT116 NfsA_Ec: 81 | 9: HCT116 AKR1C3: 3.4; HCT116 NfsA_Ec: 147 DOUBTS OF THE COPYIST ABOUT THIS PICTURE: All values: the picture prints no measure or unit for the grey numbers above the blue and red bars. […] Each is given only with the cell line of the bar it stands over, as named in the picture's key.

[6] = system: HCT116 cells over-expressing AKR1C3; test: Low cell density anti-proliferative (IC50) assay, HCT116 AKR1C3 vs HCT116 WT; format: cell-based, human; details: HCT116 WT vs HCT116 AKR1C3, aerobic, four hour exposure, five days regrowth
Description: as §4, §1
Figure 2 In vitro anti-proliferative activity of the novel lipophilic analogue series in HCT116 cells expressing AKR1C3 and E. coli NfsA (NfsA_Ec). IC50 values were determined as the concentration of drug required to inhibit cell growth by 50% of untreated controls following four hour drug exposure, with washing and regrowth for five days. Respective IC50 ratios (WT:AKR1C3 or WT:NfsA_Ec) are indicated above the bars for each compound. […]

[7] = system: 97% HCT116 WT/3% HCT116 NfsA_Ec MCLs; test: 3D multicellular layer (MCL) bystander assay, 97% HCT116 WT/3% HCT116 NfsA_Ec; format: cell-based; details: 10 µM prodrug, five hours
Excerpt: We then examined our compounds in a high cell density, 3D multi-cellular layer (MCL) assay in order to determine tissue penetration capacity of the active metabolite(s) and the potential for an efficient bystander effect. Mixed MCLs consisting of a small percentage HCT116 NfsA_Ec cells (3%) in the presence of HCT116 WT cells (97%) were used as a robust screen for efficient bystander cell kill. Here, active cytotoxic metabolites can diffuse out of the minority NfsA_Ec ‘prodrug-activating’ cell population into the WT ‘target’ population, causing death of cells that would not normally be sensitive to that concentration of prodrug.
(§5) Multicellular layers (MCLs) were grown, and bystander effect assays were performed as previously reported.
(§6) Figure 3 Lipophilic structure–activity relationship for NfsA_Ec in three dimensions. (A) Plating efficiency in 100% HCT116 WT and 97% HCT116 WT/3% HCT116 NfsA_Ec MCLs exposed to 10 µM prodrug for five hours before dissociation and plating to determine clonogenic survival. (B) Correlation between Log cell kill and LogD7.4. R = 0.63, R^2 = 0.40. Log cell kill = Log CS (control)–Log CS (treated), where CS is the number of clonogenic survivors per MCL.

[8] = LogD7.4 by low-volume octanol/PBS shake-flask method; format: physicochemical; details: n-octanol/PBS; octanol-water partition coefficient, shake-flask method at pH 7.4
Description: Distribution ratios (LogD7.4) were determined by a low-volume octanol/PBS shake-flask method. Briefly, saturated solutions of octanol and PBS were prepared by mixing equal volumes of n-octanol and PBS (pH 7.4) before being left for three days. The octanol and PBS phases were then carefully separated and left to stand for at least 24 h. Stock solutions (0.1–0.5 mM) of each compound were prepared in octanol saturated with PBS. The stock solutions were diluted with octanol saturated with PBS containing and inter-assay control (acridone) to a final compound concentration of 50 μM. Aliquots (450 μL) were then taken in triplicate, and 450 μL of PBS saturated with octanol was added into amber tubes. The tubes were then sealed in parafilm and rotated for 90 min at 30 rpm to equilibrate. After centrifugation (15,000× g, 5 min, 20°C) the octanol and PBS phases were separated into different tubes and the octanol phase diluted with methanol (1:5 v/v). Both phases were analyzed by HPLC (diode-array detector at 364 ± 10 nm) by injecting 50 μL of the PBS phase and 15 μL of the diluted octanol phase. The results were then expressed as the log ratio of the peak areas obtained from the octanol and PBS phases corrected for dilution and injection volume.

[9] = system: 100% HCT116 AKR1C3 MCLs; test: 3D multicellular layer (MCL) assay, 100% HCT116 AKR1C3; format: cell-based, human; details: 10 µM prodrug, five hours
Description: Similar to the 3D NfsA_Ec screen, increased lipophilicity also tracked with increased LCK in 100% AKR1C3-expressing MCLs (R = 0.78, R^2 = 0.61). […] These three lead compounds were taken forward into in vivo studies.
as §5
as §6, with “4” for “3”, “AKR1C3” for “NfsA_Ec”, “100%” for “97%”, “AKR1C3” for “WT/3% HCT116 NfsA_Ec”, “0.78,” for “0.63,”, “0.61.” for “0.40.”

Structure (SMILES) | IC50 [1] [µM] | WT:NfsA_Ec IC50 ratio [1] [fold] | IC50 [2] [µM] | Plasma AUCfree of PR-104A [3] [µM-h] | Km [4] [µM] | kcat [4] [s⁻¹] | IC50 [5] [µM] | WT:NfsA_Ec IC50 ratio ([5]; HCT116 WT vs HCT116 NfsA_Ec, four hour exposure) [fold] | WT:AKR1C3 IC50 ratio [6] [fold] | Log cell kill (LCK) [7] | logD at 90 min [8] | Log cell kill (LCK) [9] | melting point [°C]
CS(=O)(=O)OCCN(CCBr)c1c(C(=O)NCCO)cc([N+](=O)[O-])cc1[N+](=O)[O-] [PR-104A, reference compound] | 0.046 ± 0.003 | 2848 | 131 ± 9.9 | 38 | 100 ± 11 | 12 ± 1.4 | 0.03 | 2680 | 84 |  |  |  | 
CCCN(CCO)C(=O)c1cc(N(CCBr)CCBr)c(S(C)(=O)=O)cc1[N+](=O)[O-] [Compound 4] |  |  |  |  |  |  | 0.17 |  |  | 3.06 | 2.1 |  | 
CCCS(=O)(=O)c1cc([N+](=O)[O-])c(C(=O)N(C)CCO)cc1N(CCBr)CCBr [Compound 9] |  |  |  |  |  |  | 1 |  |  | 1.6 | 2.1 |  | 
CN(CCO)C(=O)c1cc(N(CCBr)CCBr)c(S(C)(=O)=O)cc1[N+](=O)[O-] [Compound 2, 5-(Bis(2-bromoethyl)amino)-N-(2-hydroxyethyl)-N-methyl-4-(methylsulfonyl)-2-nitrobenzamide] | 0.17 ± 0.03 | 1029 | 175 ± 3.5 |  |  |  |  |  |  |  | 1.2 | ≤ 0.11 | 138 to 140
CS(=O)(=O)c1cc([N+](=O)[O-])c(C(=O)NCCO)cc1N(CCBr)CCBr [Compound 1, 5-(Bis(2-bromoethyl)amino)-N-(2-hydroxyethyl)-4-(methylsulfonyl)-2-nitrobenzamide] | 1.18 ± 0.04 | 141 | 166 ± 26 |  |  |  |  |  |  |  | 1 | ≤ 0.11 | 
